Values of other authors in patent publication US20040120995A1, “Transdermal delivery of pergolide” (priority 2003, published 2004).
Structures can show the parent of a compound that is named as a salt. Where two headings read alike, the source gives them in different places.

Conditions: for Pergolide Blood Serum Level: human subjects

CCCN1C[C@H](CSC)C[C@@H]2c3cccc4[nH]cc(c34)C[C@H]21 [pergolide mesylate]
maximum blood serum level (2-3 hours following a 2.5 mg oral dose): about 500 picograms/ml | blood serum level (8 hours following a 0.5 mg oral dose): about 60 picograms/ml | Pergolide Blood Serum Level (oral dose 0.25 milligrams): 47.75 picograms/ml | Pergolide Blood Serum Level (oral dose 0.50 milligrams): 100.08 picograms/ml | Pergolide Blood Serum Level (oral dose 1.00 milligrams): 199.33 picograms/ml | Pergolide Blood Serum Level (oral dose 2.00 milligrams): 398.66 picograms/ml | Pergolide Blood Serum Level (oral dose 3.00 milligrams): 597.99 picograms/ml | peak serum concentration (oral dosing 3 mg/24 hours, divided into three doses): approximately 200 pg/ml
